Experimental data: patent US20240197709A1, “POTENTIATING THE TUMOR-SELECTIVE EFFECTS OF NQO1-BIOACTIVATABLE AGENT BY USE OF CMET INHIBITOR” (The Trustees of Indiana University, priority 2022, published 2024)

Legend:
[1] = tested on: cellular hydrogen peroxide (H2O2) levels in A549 cells; test: ROS-Glo H2O2 Assay; type: cell-based; conditions: A549, DIC 50 μM
Protocol: FIG. 2-1A. […] Growth media was then replaced with fresh media containing β-lap (3 μM) alone, criz alone (1 μM) or combination±DIC (50 μM) and collected at 15 and 120 min to measure H2O2 production using the ROS-Glo™ H2O2 Assay from Promega (Madison, WI). The assay was performed in three biological replicates.
Next, we sought to investigate the mechanistic role of cMET in promoting resistance to ROS-induced DNA lesions caused by the futile redox cycling of β-lap with NQO1. […] In response to H2O2 stimulation, cMET can translocate into the nucleus where it interacts with PARP1 for activation to enhance the repair of ROS-induced DNA damage. […] Next we performed PARP1 immunoprecipitation studies to determine whether it associates with activated cMET in the nucleus following treatment with β-lap at increasing doses.

[2] = tested on: A549 NSCLC cell migration and invasion; conditions: A549, crizotinib+β-lap+DIC
Protocol: FIG. 4A. Representative images of A549 NSCLC cell migration at indicated treatment conditions at 16 h post-treatment using a Boyden chamber migration assay: 2 h pre-treatment with criz followed by additional 2 h with criz±β-lap.
FIG. 4B. Bar graph showing quantification of cell migration expressed as a percent of control (vehicle).
FIG. 4C. Representative images of A549 NSCLC cell invasion at indicated treatment conditions at 16 h post-treatment using a matrigel-coated Boyden chamber invasion assay: 2 h pre-treatment with criz followed by additional 2 h with criz±β-lap.
FIG. 4D. Bar graph showing quantification of cell invasion expressed as a percent of control (vehicle).

Capan2 shMET = test: long-term survival (DNA assay), Capan2 shSCR versus shMET; type: cell-based; conditions: DIC 50 μM
Description: FIG. 1-1R. Graph showing relative long-term survival in isogenic Capan2 shSCR versus shMET cell lines using the DNA assay.
Dicoumarol (DIC) is a well-established NQO1 inhibitor (Asher, et al., Biochemistry 2006, 45(20), 6372-8; Motea, et al., Clin Cancer Res 2019, 25(8), 2601-2609; Huang, et al., Cancer Cell 2016, 30(6), 940-952).

[3] = in vivo; cited from earlier work
[4] = tested on: IMR90 lung fibroblast cell line; test: long-term cell survival assay, IMR90; type: cell-based, human; conditions: IMR90, no NQO1, high CAT; criz ± sub-lethal β-lap (3 μM)
Protocol: FIG. 1D. […] LC50 values were calculated from long-term cell survival graphs using GraphPad PRISM; ND denotes Not Determined even at the highest concentration presented. All error bars represent the mean±SEM. **** p<0.0001, *** p<0.001, ** p<0.01, *p<0.05.

[5] = tested on: Capan2-mCherry microtumor; test: 3D spheroid co-culture, tumor cells; type: cell-based; conditions: 3D co-culture with NIH3T3-GFP; crizotinib 2 μM, β-lap 2 μM or 4 μM
Protocol: FIG. 5D. Top Inset: Representative brightfield, green (NIH3T3-GFP), red (Capan2-mCherry), and merged images of 3D spheroid co-culture of Capan2-mCherry (cancer cells) and NIH3T3-GFP (normal cells). 3D co-cultures were exposed to specified treatment conditions and imaged at indicated times to monitor drug response. Scale bar=250 μm. Untreated NIH3T3-GFP 3D spheroid culture by itself (imaged at indicated times) was added for reference.
FIG. 5E. Bar graph of Capan2-mCherry 3D spheroid microtumor growth at specified treatment conditions over time. Asterisk (*) indicates synergistic response in the combination treatment compared to the corresponding individual treatments alone.
Next, we investigated the tumor-selectivity and efficacy of our combination treatment strategy using 3D co-culture spheroids of Capan2 PDAC (permanently labelled with mCherry) and NIH3T3 mouse embryonic fibroblast cells (permanently labelled with GFP) to mimic physiological cell-cell and cell-environment interactions during treatment. […] These are consistent with patient data comparing associated normal tissues versus tumors in pancreas (FIGS. 1-1B, 1-1G) and lungs (FIGS. 1A, 1-1B, 1-1H). Using confocal fluorescent microscopy, we noted that NIH3T3-GFP fibroblast cells were surrounding the Capan2-mCherry PDAC cells in the 3D spheroid co-culture (FIG. 5D).

Row | SMILES | H2O2 formation, DIC added to β-lap+criz [1] | migration and invasion, DIC added to the combination treatment [2] | effect of added DIC on β-lap sensitivity (Capan2 shMET) | MTD [3] | long-term cell survival (sensitivity) [4] | Capan2-mCherry microtumor growth [5]
1 | O=c1oc2ccccc2c(O)c1Cc1c(O)c2ccccc2oc1=O [DIC, Dicoumarol] | prevented H2O2 formation | restored the ability of A549 to migrate and invade | rescued | – | – | –
2 | C[C@@H](Oc1cc(-c2cnn(C3CCNCC3)c2)cnc1N)c1c(Cl)ccc(F)c1Cl [crizotinib] | – | – | – | 250 mg twice daily | remained resistant | very little effect on tumor growth
